# Source: patent US20250140406A1, “CLASSIFYING TUMORS AND PREDICTING RESPONSIVENESS” (Oncocyte Corporation, priority 2022, published 2025)
# Where two headings read alike, the source gives them in different places. Square brackets hold non-standard residues; d marks the D form. Peptide text beside a SMILES is read from it. dPhe(4-Cl) = N[C@H](Cc1ccc(Cl)cc1)C(=O)O; d2Nal = N[C@H](Cc1ccc2ccccc2c1)C(=O)O; dCit = NC(=O)NCCC[C@@H](N)C(=O)O; d3Pal = N[C@H](Cc1cccnc1)C(=O)O
# Assays:
# [1] = system: cancer cell lines classified IM, MSL, M; experiment: PRISM screen compound sensitivity correlated with IM, MSL and M subtype of cell lines (101 gene signature); format: cell-based
# [2] = system: cancer cell lines, DetermaIO classes; experiment: Association of PRISM compound sensitivity with DetermaIO (DTIO) cell line classes; format: cell-based
# [3] = correlation of PRISM compound sensitivity with IM subtype correlation, test cell set (188 cell lines)
# [4] = correlation of PRISM compound sensitivity with M subtype correlation, test cell set (188 cell lines)
# [5] = correlation of PRISM compound sensitivity with MSL subtype correlation, test cell set (188 cell lines)
# [6] = subtype (IM, MSL or M) assigned to the compound by negative correlation of PRISM sensitivity with subtype, training cell set (371 cell lines), 101 gene signature
# [7] = correlation of PRISM compound sensitivity with DTIO (DetermaIO), test cell set (188 cell lines)
# [8] = correlation of PRISM compound sensitivity with DTIO (DetermaIO), training cell set (371 cell lines)
# [9] = correlation of PRISM compound sensitivity with DTIO, test cell set
# [10] = correlation of PRISM compound sensitivity with DTIO, training cell set
# [11] = correlation of PRISM compound sensitivity with IM subtype correlation, test cell set
# [12] = correlation of PRISM compound sensitivity with M subtype correlation, test cell set
# [13] = correlation of PRISM compound sensitivity with MSL subtype correlation, test cell set
Compound,"IM Corr test [1, 3]","M Corr test [1, 4]","MSL Corr test [1, 5]","DTIO Corr test [2, 7]","DTIO Corr train [2, 8]","DTIO Corr test [2, 9]","DTIO Corr train [2, 10]","IM Corr test [1, 11]","M Corr test [1, 12]","MSL Corr test [1, 13]",other results
COc1ccc(C2CNC(=O)NC2)cc1O[C@H]1C[C@@H]2CC[C@H]1C2 [atizoram],−0.0276,0.01206,−0.09365,0.000749,−0.04268,,,,,,"TNBCType train [1, 6]: MSL"
Cc1occc(=O)c1[O-].Cc1occc(=O)c1[O-].[O]=[V+2] [bis(maltolato)oxo-vanadium(IV)],0.04745,−0.1743,−0.04621,,,0.09031,0.1485,,,,"DTIO Corr test ([2]; correlation of compound sensitivity with DetermaIO (DTIO), test set): 0.09031; DTIO Corr train ([2]; correlation of compound sensitivity with DetermaIO (DTIO), training set): 0.1485"
CCCC[C@H](NC(C)=O)C(=O)N[C@H]1CC(=O)NCCCC[C@@H](C(=O)O)NC(=O)[C@H](Cc2c[nH]c3ccccc23)NC(=O)[C@H](CCCN=C(N)N)NC(=O)[C@@H](Cc2ccccc2)NC(=O)[C@H](Cc2cnc[nH]2)NC1=O [bremelanotide],−0.04735,0.07264,−0.04913,,,−0.06366,−0.07952,,,,
CCCCC1OC(=O)c2ccccc21 (stereo not shown) [butylphthalide],−0.03693,−0.03289,−0.02003,,,−0.1082,0.01178,,,,"TNBCType train ([1]; subtype (IM, MSL or M) with which compound sensitivity is negatively correlated, training cell set (371 cell lines), 101 gene signature): MSL"
COc1ccc(Nc2nccc(NCCO)n2)cc1 [cardiogenol-c],−0.05174,−0.01984,−0.00925,,,,,,,,"TNBCType train ([1]; subtype (IM, MSL or M) the PRISM compound sensitivity is associated with, training cell set (371 cell lines), 101 gene signature): MSL; DTIO Corr test ([2]; correlation of PRISM compound sensitivity with DTIO, test cell set (188 cell lines)): −0.07629; DTIO Corr train ([2]; correlation of PRISM compound sensitivity with DTIO, training cell set (371 cell lines)): 0.01043"
CO/N=C(\C(=O)N[C@@H]1C(=O)N2C(C(=O)OCOC(=O)C(C)(C)C)=C(C)CS[C@H]12)c1csc(N)n1 [cefetamet-pivoxil],,,,,,−0.06679,−0.1217,−0.01246,0.001642,−0.041,
CC(=O)N[C@H](Cc1ccc2ccccc2c1)C(=O)N[C@H](Cc1ccc(Cl)cc1)C(=O)N[C@H](Cc1cccnc1)C(=O)N[C@@H](CO)C(=O)N[C@@H](Cc1ccc(O)cc1)C(=O)N[C@H](CCCNC(N)=O)C(=O)N[C@@H](CC(C)C)C(=O)N[C@@H](CCCNC(=N)N)C(=O)N1CCC[C@H]1C(=O)N[C@H](C)C(N)=O [cetrorelix] (Ac-[d2Nal][dPhe(4-Cl)][d3Pal]SY[dCit]LRP[dA]-NH2),−0.1828,−0.05533,−0.07051,−0.1344,0.03723,,,,,,"TNBCType train [1, 6]: MSL"
COc1cc(-c2ccc(N=Nc3ccc4c(S(=O)(=O)[O-])cc(S(=O)(=O)[O-])c(N)c4c3O)c(OC)c2)ccc1N=Nc1ccc2c(S(=O)(=O)[O-])cc(S(=O)(=O)[O-])c(N)c2c1O.[Na+].[Na+].[Na+].[Na+] [chicago-sky-blue-6b],−0.1701,0.1599,0.184,−0.07521,−0.1611,,,,,,
"CCS(=O)(=O)N(C)[C@H]1c2cc(C#N)ccc2OC(C)(C)[C@@H]1O [chromanol-293B-(−)-[3R,4S]]",,,,,,−0.09957,−0.08029,−0.09685,0.08774,0.1021,
Cc1c(Cl)cccc1Nc1ncccc1C(=O)O.NCCCC[C@H](N)C(=O)O [clonixin-lysinate],,,,,,,,,,,IM Corr test [1]: −0.06378; M Corr test [1]: 0.004709; MSL Corr test [1]: −0.03679; TNBCType train [1]: MSL; DTIO Corr test [2]: −0.01494; DTIO Corr train [2]: −0.00484
CN(CCOP(=O)(O)O)C(=N)N [creatinol-phosphate],,,,,,0.02757,−0.08518,−0.00785,0.001052,−0.06276,
CN[C@@H](C)[C@H]1[C@H](O)C[C@@]2(C)[C@@H]3CC[C@H]4C(C)(C)[C@@H](NC)CC[C@@]45C[C@@]35CC[C@]12C [cyclovirobuxin-d],,,,,,0.02667,0.06721,0.03318,−0.04158,0.04619,
N#CCNC(=O)c1ccc(-c2ccnc(Nc3ccc(N4CCOCC4)cc3)n2)cc1 [cyt387],0.06763,−0.1142,−0.1416,0.000569,−0.03421,,,,,,"TNBCType train [1, 6]: MSL"
